Assay results: patent US4277465A, “Adjuvant for promoting absorption of therapeutically active substances through the digestive tract” (Kyoto Yakuhin Kogyo Kabushiki Kaisha, priority 1978, dated 1981)
Several values for one entry are separate records, joined by “and”; a condition that tells them apart may be missing. Equal values may be shown once. Blank lines part the entries; values can stand above or below the molecule they belong to.

Legend:
[1] = Stability in aqueous solution (half-life of enamine derivatives); type: physicochemical; conditions: pH 7.4 phosphate buffer, μ 0.15, 25° C., UV absorption spectrometry; "stable" = enamine structure retained even after 6 hours
Procedure: To examine the stability in water of the enamine derivatives (I) obtained above, some representative compounds were selected and their half-lives [t 0.5 (min.)] in pH 7.4 phosphate buffer (μ: 0.15, temp.: 25° C.) were determined by ultraviolet absorption spectrometry. In the Table, "stable" means that the enamine structure was retained even after 6 hours.

[2] = Rectal suppositories of CET-Na with enamine derivative, concentration in blood; type: in vivo; conditions: dog
Procedure: These suppositories were rectally administered to dogs and the absorbabilities of the active components were investigated by measuring the blood concentrations.
(§1) The blood concentrations were measured in conformity with the biological assay method in the Antibiotic Standard of Japan. The cup method was employed with Sarcina lutea for penicillins and Bacillus subtilis for cephalosporins.

[3] = Rectal suppositories of AB-PC-Na with enamine derivative, concentration in blood; type: in vivo; conditions: AB-PC-Na 75mg, dog
Procedure: as §1, with “These suppositories were rectally administered to dogs and the absorbabilities of the active components were investigated by measuring the blood concentrations. The blood” for “The blood”

[4] = Rectal inulin dosage form with adjuvant, urinary recovery of inulin; type: in vivo, human; conditions: Lunt method
Procedure: (§2) The following dosage forms (dispersed in Witepsol H-15®) were rectally administered to dogs and humans to measure the urinary recovery rates of inulin. […] The test was carried out by the Lunt method.

[5] = Rectal ointment of CET-Na with enamine derivative, blood concentration; type: in vivo, rabbit; conditions: for AUC / Peak blood concentration: CET, rectal ointment CET.Na 20%, enamine derivative 10%, dose 50 mg CET.Na/kg
Procedure: Cephalothin sodium (briefly CET-Na), a drug which is sparingly absorbed from the rectum, was selected for a test. Thus, CET-Na was dispersed in liquid paraffin-white vaseline base to prepare rectal ointment. The ointment was administered to rabbits by the rectal route. […] The blood concentration was measured in conformity with the biological assay method in the Antibiotic Standard of Japan. […]

[6] = Rectal ointment of CEX.H2O with enamine derivative, blood concentration; type: in vivo, rabbit; conditions: rectal ointment CEX.H2O 20%, enamine derivative 10%, dose 50 mg CEX.H2O/kg
Procedure: (§3) AB-PC and cephalexin (briefly, CEX), both of which are sparingly absorbed from the rectum, are also tested. Thus, enamine derivatives (I) and these antibiotics were used to prepare rectal ointments in accordance with established practice. The ointments were administered to rabbits to investigate the peak blood concentrations (μg/ml) and AUC (μg.min./ml).
Dose: 50 mg CEX . H2 O/kg

[7] = Rectal inulin suppository with adjuvant, urinary recovery of inulin; type: in vivo, rabbit
Procedure: The above components were used to prepare a suppository in accordance with established pharmaceutical practice. The suppository was rectally administered to rabbits (body weights 2.0-2.5 kg) and the blood concentrations were determined.
The results, shown in FIG. 7, indicates the versatility of enamine derivative (I). The amount of inulin excreted in the urine was 18% of the dose administered.
as §2

[8] = Rectal inulin dosage form with adjuvant, urinary recovery of inulin; type: in vivo, dog; conditions: in Witepsol H-15, level of addition of enamine derivative 5%, Lunt method
Procedure: as §2

[9] = Oral capsule of AB-PC sodium with adjuvant, blood concentration of AB-PC; type: in vivo; conditions: AB-PC sodium 15 mg/kg + Compound 3 10 mg/kg, one value per rabbit, sodium salt
Procedure: Ampicillin (briefly, AB-PC) sodium
Capsules each containing the above indicated amounts of components were prepared by the conventional procedure and administrered to 3 rabbits. Immediately thereafter, each animal was given 20 ml of water and the concentration of AB-PC in the blood was measured by the biological assay method. In the figure, white circles represent AB-PC alone and black circles represent the capsule according to this invention.
The blood concentrations were measured in conformity with the Antibiotic Standard of Japan. The cup method was employed with Sarcina lutea.

[10] = Rectal insulin suppository with Compound 3, blood glucose concentration (glucoseoxidase method); type: in vivo, rabbit; conditions: 3 I.U. insulin per animal + Compound 3 0.05 g in Witepsol H-15
Procedure: The test was conducted by the glucoseoxidase method. […] The largest depression of blood glucose from the pre-medication level was expressed in % response.

[11] = Rectal ointment of AB-PC.Na with enamine derivative, blood concentration; type: in vivo, rabbit; conditions: rectal ointment AB-PC.Na 10%, enamine derivative 10%, dose 15 mg AB-PC.Na/kg
Procedure: as §3
Dose: 15mg AB-PC . Na/kg
Compounds 3, 5, 13 and 14 were used as said enamine derivatives (I) in Recipes 4, 5, 6 and 7, respectively.

[12] = Rectal insulin suppositories (Recipes 35-41), glucose response; type: in vivo; conditions: rabbit 2.5-3kg; rectal suppository 6 I.U. insulin; enamine derivative 0.025g (5%)
Excerpt: These suppositories were rectally administered to rabbits (R, 2.5-3kg) and dogs (D, 12-13kg).

[13] = CET-Na 500mg, enamine derivative 150mg (10%), base Witepsol H-15 850mg
[14] = enamine derivative 60mg, base SB-W 1065mg
[15] = enamine derivative 120mg (10%), base SB-W 1005mg
[16] = CET-Na 75mg, enamine derivative 120mg (10%), base Witepsol H-15 1005mg

SMILES: CCOC(=O)C=C(C)NC(Cc1ccccc1)C(=O)[O-].[Na+] (racemic) [Compound 10, N-(1-Methyl-2-ethoxycarbonylvinyl)-DL-phenylalanine sodium salt]
half-life t 0.5 [1]: 15.7 min | Concentration in blood, 15 min. [2, 13]: 15300 ng/mL | Concentration in blood, 30 min. [2, 13]: 11730 ng/mL | Concentration in blood, 60 min. [2, 13]: 6750 ng/mL | Concentration in blood, 120 min. [2, 13]: 2200 ng/mL

SMILES: CCOC(=O)C=C(C)NCC(=O)[O-].[Na+] [Compound 1, N-(1-Methyl-2-ethoxycarbonylvinyl)glycine sodium salt]
Concentration in blood, 15 min. [3, 14]: 1230 ng/mL | Concentration in blood, 30 min. [3, 14]: 870 ng/mL | Concentration in blood, 60 min. [3, 14]: 610 ng/mL | Concentration in blood, 120 min. [3, 14]: 320 ng/mL | half-life t 0.5 [1]: 3.7 min | % Urinary recovery ([4]; in Witepsol H-15, level of addition of enamine derivative 2%): 12%

SMILES: CCOC(=O)C(=CN[C@@H](C(=O)[O-])c1ccccc1)C(=O)OCC.[Na+] [Compound 5, N-[2,2-bis(ethoxycarbonyl)vinyl]-D-phenylglycine sodium salt]
AUC [5]: 306 µg·min/mL | Peak blood concentration [5]: 6.1 µg/mL | half-life t 0.5 [1]: Stable | AUC [11]: 149 µg·min/mL | Peak blood concentration [11]: 4.7 µg/mL

SMILES: CCCCOC(=O)C1=C(N[C@@H](C(=O)[O-])c2ccccc2)CCC1.[Na+] [Compound 7, N-(2-Butoxycarbonyl-1-cyclopenten-1-yl)-D-phenylglycine sodium salt]
half-life t 0.5 [1]: Stable

SMILES: CCOC(=O)C=C(C)NCCS(=O)(=O)[O-].[Na+] [Compound 14, N-(1-Methyl-2-ethoxycarbonylvinyl)taurine sodium salt]
AUC [5]: 250 µg·min/mL | Peak blood concentration [5]: 7.8 µg/mL | half-life t 0.5 [1]: 24.0 min | AUC [11]: 239 µg·min/mL | Peak blood concentration [11]: 5.9 µg/mL

SMILES: CCOC(=O)C=C(C)NCC(=O)NCC(=O)[O-].[Na+] [Compound 15, N-(1-Methyl-2-ethoxycarbonylvinyl)glycylglycine sodium salt]
AUC [5]: 102 µg·min/mL | Peak blood concentration [5]: 1.8 µg/mL | half-life t 0.5 [1]: 31.8 min

SMILES: CCOC(=O)C=C(C)N[C@@H](CCC(=O)[O-])C(=O)[O-].[Na+].[Na+] [Compound 16, N-(1-Methyl-2-ethoxycarbonylvinyl)-L-glutamic acid sodium salt]
Concentration in blood, 15 min. [3, 15]: 690 ng/mL | Concentration in blood, 30 min. [3, 15]: 480 ng/mL | Concentration in blood, 60 min. [3, 15]: 520 ng/mL | Concentration in blood, 120 min. [3, 15]: 290 ng/mL | half-life t 0.5 [1]: 16.3 min

SMILES: CCOC(=O)C=C(C)NCCCC[C@H](NC(C)=CC(=O)OCC)C(=O)[O-].[Na+] [Compound 17, N,N'-Bis(1-methyl-2-ethoxycarbonylvinyl)-L-lysine sodium salt]
AUC [5]: 396 µg·min/mL | Peak blood concentration [5]: 8.7 µg/mL | half-life t 0.5 [1]: 22.9 min

SMILES: CCOC(=O)CNC(=O)C=C(C)N[C@@H](Cc1ccccc1)C(=O)[O-].[Na+] [Compound 37, N-(1-Methyl-2-ethoxycarbonylmethylcarbamoyl-vinyl)-L-phenylalanine sodium salt]
Blood glucose response (6 I.U.) [12]: 20-30% | Time course: Lowest level [12]: 30 to 60 min | Time course: Onset [12]: 30 min | Time course: Return to pre-medication level [12]: 120 min | Concentration in blood, 15 min. [2, 16]: 1500 ng/mL | Concentration in blood, 30 min. [2, 16]: 1280 ng/mL | Concentration in blood, 60 min. [2, 16]: 870 ng/mL | Concentration in blood, 120 min. [2, 16]: 440 ng/mL

Continued, in another order:

AUC [5]: 315 µg·min/mL | Peak blood concentration [5]: 6.3 µg/mL | AUC [6]: 278 µg·min/mL | Peak blood concentration [6]: 6.7 µg/mL | half-life t 0.5 [1]: 18.8 min
SMILES: CCOC(=O)C=C(C)NCCCC(=O)[O-].[Na+] [Compound 2, N-(1-Methyl-2-ethoxycarbonylvinyl)-γ-aminobutyric acid sodium salt]

AUC [5]: 445 µg·min/mL | Peak blood concentration [5]: 14.4 µg/mL | half-life t 0.5 [1]: 26.1 min | % Urinary recovery ([4]; in Witepsol H-15, level of addition of enamine derivative 1%): 11% | % Urinary recovery ([7]; inulin, rectal, in Witepsol H-15, level of addition of enamine derivative 10%, Lunt method): 8% | amount of inulin excreted in the urine ([7]; rectal suppository, inulin 0.25 g + Compound 3 0.05 g in Witepsol H-15): 18 % of the dose administered | % Urinary recovery [8]: 20% | area under the blood-concentration curve (AUC) of AB-PC relative to AB-PC alone [9]: 1.52 times and 1.99 times and 1.73 times | AUC [11]: 270 µg·min/mL | Peak blood concentration [11]: 4.8 µg/mL
SMILES: CCOC(=O)C=C(C)N[C@@H](C(=O)[O-])c1ccccc1.[Na+] [Compound 3, N-(1-Methyl-2-ethoxycarbonylvinyl)-D-phenylglycine sodium salt]
change in blood concentration of CET (in words) ([5]; rectal ointment CET-Na 20%, Compound 3 10%, dose 50 mg CET-Na/kg, FIG. 3): high CET level in the blood could by very quickly achieved | reduction of blood glucose concentration from the pre-medication level [10]: about 50%

AUC [5]: 568 µg·min/mL | Peak blood concentration [5]: 11.0 µg/mL | half-life t 0.5 [1]: Stable
SMILES: CC(=O)C=C(C)N[C@@H](C(=O)[O-])c1ccccc1.[Na+] [Compound 4, N-(1-Methyl-2-acetylvinyl)-D-phenylglycine sodium salt]

half-life t 0.5 [1]: 478 min
SMILES: CC(N[C@@H](C(=O)[O-])c1ccccc1)=C1CCOC1=O.[Na+] [Compound 6, N-[1-(Tetrahydro-2-furanone-3-ylidene)ethyl]-D-phenylglycine sodium salt]

AUC [5]: 49 µg·min/mL | Peak blood concentration [5]: 3.8 µg/mL
SMILES: CCOC(=O)C=C(C)N[C@@H](C(=O)OC)c1ccccc1 [Compound 8, Methyl-N-(1-methyl-2-ethoxycarbonylvinyl)-D-phenylglycinate]

AUC [5]: 25 µg·min/mL | Peak blood concentration [5]: 2.5 µg/mL | AUC [6]: 733 µg·min/mL | Peak blood concentration [6]: 6.5 µg/mL | half-life t 0.5 [1]: 3.1 min | AUC [11]: 108 µg·min/mL | Peak blood concentration [11]: 2.6 µg/mL
SMILES: CCOC(=O)C=C(C)N1CCC[C@H]1C(=O)[O-].[Na+] [Compound 13, N-(1-Methyl-2-ethoxycarbonylvinyl)-L-proline sodium salt]
